Where “and” joins values, the source holds several entries; their conditions need not be identical. Equal entries are not always repeated. Toxic doses and inconclusive results are not listed.
Test system: CD2F1 mice, L1210 leukemia ip, survival T/C
Test: NCI In Vivo Anticancer Drug Screen. Data for tumor model L1210 Leukemia (intraperitoneal) in CD2F1 (CDF1) mice
Details: higher = longer survival
Method in brief: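 Implant tumor; dose compound or vehicle; measure endpoint in both groups; report treated divided by control.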

[1] = endpoint: mean survival time, dose: 50.0 mg/kg/injection, schedule: Q01DX009 (ip), vehicle: Klucel (hydroxypropylcellulose) (HPC)
[2] = endpoint: mean survival time, dose: 100.0 mg/kg/injection, schedule: Q01DX009 (ip), vehicle: Klucel (hydroxypropylcellulose) (HPC)
[3] = endpoint: mean survival time, dose: 200.0 mg/kg/injection, schedule: Q01DX009 (ip), vehicle: Klucel (hydroxypropylcellulose) (HPC)
[4] = endpoint: mean survival time, dose: 12.5 mg/kg/injection, schedule: Q01DX009 (ip), vehicle: Klucel (hydroxypropylcellulose) (HPC)
[5] = endpoint: mean survival time, dose: 25.0 mg/kg/injection, schedule: Q01DX009 (ip), vehicle: Klucel (hydroxypropylcellulose) (HPC)
[6] = endpoint: mean survival time, dose: 6.25 mg/kg/injection, schedule: Q01DX009 (ip), vehicle: saline with Tween-80
[7] = endpoint: mean survival time, dose: 12.5 mg/kg/injection, schedule: Q01DX009 (ip), vehicle: saline with Tween-80
[8] = endpoint: mean survival time, dose: 25.0 mg/kg/injection, schedule: Q01DX009 (ip), vehicle: saline with Tween-80
[9] = endpoint: mean survival time, dose: 100.0 mg/kg/injection, schedule: Q01DX009 (ip), vehicle: saline with Tween-80
[10] = endpoint: mean survival time, dose: 200.0 mg/kg/injection, schedule: Q01DX009 (ip), vehicle: saline with Tween-80
[11] = endpoint: mean survival time, dose: 100.0 mg/kg/injection, schedule: Q04DX003 (ip), vehicle: saline with Tween-80
[12] = endpoint: mean survival time, dose: 200.0 mg/kg/injection, schedule: Q04DX003 (ip), vehicle: saline with Tween-80
[13] = endpoint: mean survival time, dose: 400.0 mg/kg/injection, schedule: Q01DX009 (ip), vehicle: saline with Tween-80
[14] = endpoint: mean survival time, dose: 400.0 mg/kg/injection, schedule: Q04DX003 (ip), vehicle: saline with Tween-80
[15] = endpoint: mean survival time, dose: 75.0 mg/kg/injection, schedule: Q01DX001 (ip), vehicle: other
[16] = endpoint: mean survival time, dose: 150.0 mg/kg/injection, schedule: Q01DX001 (ip), vehicle: other
[17] = endpoint: mean survival time, dose: 400.0 mg/kg/injection, schedule: Q01DX009 (ip), vehicle: Klucel (hydroxypropylcellulose) (HPC)

In the case of `O=C1c2ccccc2C(=O)N1Cl`, the T/C [1] is reported as 96 % of control, the T/C (endpoint: mean survival time, dose: 50.0 mg/kg/injection, schedule: Q04DX003 (ip), vehicle: other) is reported as 100 % of control and the T/C [2] is reported as 89 % of control. The T/C (endpoint: mean survival time, dose: 100.0 mg/kg/injection, schedule: Q04DX003 (ip), vehicle: other) was 104 % of control, the T/C [3] was 93 % of control and the T/C (endpoint: mean survival time, dose: 200.0 mg/kg/injection, schedule: Q04DX003 (ip), vehicle: other) was 110 % of control.
With `CN(C)Cc1cccc2ccccc12` the T/C [4] was 109 % of control, the T/C [5] was 109 % of control and the T/C [1] was 97 % of control.
`Cc1cccc(C2=NCCN2)c1C` was tested, and the T/C (endpoint: mean survival time, dose: 5.0 mg/kg/injection, schedule: Q01DX001 (ip), vehicle: saline with Tween-80) was 95 % of control, the T/C (endpoint: mean survival time, dose: 10.0 mg/kg/injection, schedule: Q01DX001 (ip), vehicle: saline with Tween-80) was 97 % of control and the T/C (endpoint: mean survival time, dose: 20.0 mg/kg/injection, schedule: Q01DX001 (ip), vehicle: saline with Tween-80) was 97 % of control.
With `CC(=O)Nc1ccc(C=O)cc1` the T/C (endpoint: mean survival time, dose: 50.0 mg/kg/injection, schedule: Q04DX003 (ip), vehicle: saline) was 102 % of control, the T/C (endpoint: mean survival time, dose: 100.0 mg/kg/injection, schedule: Q04DX003 (ip), vehicle: saline) was 100 % of control and the T/C (endpoint: mean survival time, dose: 200.0 mg/kg/injection, schedule: Q04DX003 (ip), vehicle: saline) was 100 % of control.
With `CC(/C=N/N(C)C)=N\N(C)C` the T/C (endpoint: mean survival time, dose: 50.0 mg/kg/injection, schedule: Q01DX009 (ip), vehicle: saline) was 108 % of control and the T/C (endpoint: mean survival time, dose: 100.0 mg/kg/injection, schedule: Q01DX009 (ip), vehicle: saline) was 96 % of control.
In the case of `CC([NH-])C([NH-])O.O=S(=O)(O)O.[Pt+2]` (stereo not drawn), the T/C (endpoint: mean survival time, dose: 12.5 mg/kg/injection, schedule: Q04DX003 (ip), vehicle: saline) is reported as 166 % of control and the T/C (endpoint: mean survival time, dose: 25.0 mg/kg/injection, schedule: Q04DX003 (ip), vehicle: saline) is reported as 103 % of control.
In the case of `CC(=N)c1ccc(C)cc1`, the T/C (endpoint: mean survival time, dose: 6.25 mg/kg/injection, schedule: Q01DX001 (ip), vehicle: saline sonified) is reported as 96 % of control, the T/C (endpoint: mean survival time, dose: 12.5 mg/kg/injection, schedule: Q01DX001 (ip), vehicle: saline sonified) is reported as 96 % of control and the T/C (endpoint: mean survival time, dose: 25.0 mg/kg/injection, schedule: Q01DX001 (ip), vehicle: saline sonified) is reported as 96 % of control.
In the case of `CC(=O)Nc1ccc(C(=O)C=O)cc1`, the T/C [6] is reported as 103 % of control, the T/C [7] is reported as 110 % of control and the T/C [8] is reported as 107 % of control. For the same compound, the T/C (endpoint: mean survival time, dose: 50.0 mg/kg/injection, schedule: Q01DX009 (ip), vehicle: saline with Tween-80) was 113 % of control, the T/C [9] was 110 % of control and the T/C [10] was 103 % of control.
In the case of `O=C(C1=C/C(=C\c2ccccc2)CCC1)c1ccccc1`, the T/C [9] is reported as 98 % of control, the T/C [11] is reported as 104 % of control and the T/C [10] is reported as 94 % of control. The T/C [12] was 100 % of control, the T/C [13] was 88 % of control and the T/C [14] was 102 % of control.
In the case of `C[n+]1c(O)c(C(=O)CCl)n2cc([N+](=O)[O-])ccc21`, the T/C (endpoint: mean survival time, dose: 12.5 mg/kg/injection, schedule: Q01DX009 (ip), vehicle: acetone) is reported as 95 % of control, the T/C (endpoint: mean survival time, dose: 25.0 mg/kg/injection, schedule: Q01DX009 (ip), vehicle: acetone) is reported as 101 % of control and the T/C (endpoint: mean survival time, dose: 50.0 mg/kg/injection, schedule: Q01DX009 (ip), vehicle: acetone) is reported as 90 % of control.
With `COC(=O)C[As+](c1ccccc1)(c1ccccc1)c1ccccc1` the T/C [15] was 97 % of control, the T/C (endpoint: mean survival time, dose: 75.0 mg/kg/injection, schedule: Q01DX001 (ip), vehicle: saline) was 103 % of control and the T/C [16] was 91 % of control. The T/C (endpoint: mean survival time, dose: 150.0 mg/kg/injection, schedule: Q01DX001 (ip), vehicle: saline) was 94 % of control.
`O=C(c1ccccc1)C(C(c1ccccc1)N1CCOCC1)N1CCOCC1` (stereo not drawn) was tested, and the T/C [11] was 90 % of control, the T/C [10] was 96 % of control and the T/C [12] was 92 % of control. For the same compound, the T/C [13] was 93 % of control and the T/C [14] was 97 % of control.
For `Cn1c(=O)c2c(ncn2C2C(=O)NNC2=O)n(C)c1=O`, the T/C (endpoint: mean survival time, dose: 12.5 mg/kg/injection, schedule: Q01DX005 (ip), vehicle: distilled water + Tween-80) was 102 % of control, the T/C (endpoint: mean survival time, dose: 25.0 mg/kg/injection, schedule: Q01DX005 (ip), vehicle: distilled water + Tween-80) was 104 % of control and the T/C (endpoint: mean survival time, dose: 50.0 mg/kg/injection, schedule: Q01DX005 (ip), vehicle: distilled water + Tween-80) was 104 % of control. The T/C (endpoint: mean survival time, dose: 100.0 mg/kg/injection, schedule: Q01DX005 (ip), vehicle: distilled water + Tween-80) was 98 % of control, the T/C (endpoint: mean survival time, dose: 200.0 mg/kg/injection, schedule: Q01DX005 (ip), vehicle: distilled water + Tween-80) was 92 % of control and the T/C (endpoint: mean survival time, dose: 400.0 mg/kg/injection, schedule: Q01DX005 (ip), vehicle: distilled water + Tween-80) was 95 % of control.
For `O=C([CH-]C(=O)C(F)(F)F)c1ccccc1.O=C([CH-]C(=O)C(F)(F)F)c1ccccc1.O=C([CH-]C(=O)C(F)(F)F)c1ccccc1.O=C([CH-]C(=O)C(F)(F)F)c1ccccc1.[Eu+3].c1ccncc1`, the T/C [4] was 95 % of control and 101 % of control, the T/C [5] was 101 % of control and the T/C [1] was 89 % of control and 106 % of control. The T/C [2] was 97 % of control and 109 % of control, the T/C [3] was 95 % of control and 100 % of control and the T/C [17] was 97 % of control and 100 % of control.
In the case of `CC(C)NC(=O)N(c1ccccc1)C(C)C`, the T/C [9] is reported as 102 % of control and the T/C [10] is reported as 90 % of control.
`Nc1ncnc2[nH]ncc12` was tested, and the T/C (endpoint: median survival time, dose: 3.0 mg/kg/injection, schedule: Q01DX009 (ip), vehicle: saline) was 100 % of control and 105 % of control, the T/C (endpoint: median survival time, dose: 6.0 mg/kg/injection, schedule: Q01DX009 (ip), vehicle: saline) was 114 % of control and 111 % of control and the T/C (endpoint: median survival time, dose: 12.0 mg/kg/injection, schedule: Q01DX009 (ip), vehicle: saline) was 121 % of control and 111 % of control.
In the case of `C/C=C/CC(C/C=C/C)C1CC[N-]CC1.C/C=C/CC(C/C=C/C)C1CC[N-]CC1.[Cl][Pt+2]([Cl])([Cl])[Cl]`, the T/C (endpoint: mean survival time, dose: 12.5 mg/kg/injection, schedule: Q01DX009 (ip), vehicle: other) is reported as 93 % of control and the T/C (endpoint: mean survival time, dose: 100.0 mg/kg/injection, schedule: Q01DX009 (ip), vehicle: other) is reported as 88 % of control.
In the case of `CCCC[S+](CCCC)CC(=O)c1ccc(-c2ccccc2)cc1`, the T/C (endpoint: mean survival time, dose: 0.19 mg/kg/injection, schedule: Q01DX009 (ip), vehicle: saline with Tween-80) is reported as 97 % of control, the T/C (endpoint: mean survival time, dose: 0.39 mg/kg/injection, schedule: Q01DX009 (ip), vehicle: saline with Tween-80) is reported as 101 % of control and the T/C (endpoint: mean survival time, dose: 0.76 mg/kg/injection, schedule: Q01DX009 (ip), vehicle: saline with Tween-80) is reported as 98 % of control. For the same compound, the T/C (endpoint: mean survival time, dose: 1.56 mg/kg/injection, schedule: Q01DX009 (ip), vehicle: saline with Tween-80) was 97 % of control, the T/C (endpoint: mean survival time, dose: 1.56 mg/kg/injection, schedule: Q01DX009 (ip), vehicle: saline) was 86 % of control and the T/C (endpoint: mean survival time, dose: 3.12 mg/kg/injection, schedule: Q01DX009 (ip), vehicle: saline with Tween-80) was 98 % of control. The T/C (endpoint: mean survival time, dose: 3.13 mg/kg/injection, schedule: Q01DX009 (ip), vehicle: saline) was 87 % of control, the T/C (endpoint: mean survival time, dose: 12.5 mg/kg/injection, schedule: Q01DX009 (ip), vehicle: saline) was 87 % of control and the T/C (endpoint: mean survival time, dose: 25.0 mg/kg/injection, schedule: Q01DX009 (ip), vehicle: saline) was 87 % of control.
With `CCOC(=O)c1ccccc1C(C)CC` (stereo not drawn) the T/C [15] was 98 % of control, the T/C [16] was 97 % of control and the T/C (endpoint: mean survival time, dose: 300.0 mg/kg/injection, schedule: Q01DX001 (ip), vehicle: other) was 95 % of control.
With `Nc1ccccc1Nc1ccccc1` the T/C (endpoint: mean survival time, dose: 100.0 mg/kg/injection, schedule: Q01DX001 (ip), vehicle: saline + alcohol) was 101 % of control and the T/C (endpoint: mean survival time, dose: 200.0 mg/kg/injection, schedule: Q01DX001 (ip), vehicle: saline + alcohol) was 97 % of control.
`NC(=O)c1ncn(C2OC(CO)C(O)C2O)c1O` (stereo not drawn) was tested, and the T/C [4] was 122 % of control, the T/C [5] was 113 % of control and 120 % of control and the T/C [3] was 116 % of control and 106 % of control. The T/C [17] was 120 % of control and 93 % of control and 110 % of control.
For `Cc1ccc(NC(=O)C2CCC(C)(C(=O)O)C2(C)C)cc1` (stereo not drawn), the T/C [11] was 96 % of control and the T/C [12] was 91 % of control.
For `CC1CN(C(=N)C#N)C(C)CN1C(=N)C#N` (stereo not drawn), the T/C [6] was 96 % of control, the T/C [7] was 102 % of control and the T/C [8] was 105 % of control.
